Source: PubChem BioAssay AID1845228

conditions: pampa; 60.0 min; 50.0 µM

Compared with `CC(C)C(=O)OCc1cccc(OC(=O)[C@@H]2N3C(=O)[C@@H](NC(=O)Cc4ccccc4)[C@H]3SC2(C)C)c1`, `CC1(C)S[C@@H]2[C@H](NC(=O)C(C(=O)Oc3ccc4c(c3)CCC4)c3ccccc3)C(=O)N2[C@H]1C(=O)O` (stereo not given in full) is lower in Papp: 84 ×10⁻⁶ cm/s for the first, < 1 ×10⁻⁶ cm/s for the second.

`CO[C@@]1(NC(=O)C(C(=O)O)c2ccc(O)cc2)C(=O)N2C(C(=O)O)=C(CSc3nnnn3C)CO[C@@H]21` (stereo not given in full) and `CO[C@@]1(NC(=O)C2SC(=C(C(N)=O)C(=O)O)S2)C(=O)N2C(C(=O)O)=C(CSc3nnnn3C)CS[C@@H]21` (stereo not given in full) cannot be ordered by Papp: < 1 ×10⁻⁶ cm/s for the first, < 1 ×10⁻⁶ cm/s for the second.

Compared with `Cn1nnnc1Sc1ncnc2scc(-c3ccc(C(F)(F)F)cc3)c12`, `Cn1nnnc1Sc1ncnc2scc(-c3cccc(C(F)(F)F)c3)c12` is lower in Papp: > 300 ×10⁻⁶ cm/s for the first, 296 ×10⁻⁶ cm/s for the second.

Compared with `CCC(=O)C1=C(c2ccc(F)cc2)N(C(=O)CC)n2cnnc2S1`, `Cc1ccc(-c2csc3ncnc(Sc4nnnn4C)c23)cc1` is higher in Papp: 189 ×10⁻⁶ cm/s for the first, > 300 ×10⁻⁶ cm/s for the second.

First: CC(=O)Nc1c2sscc-2n(C)c1=O
Second: CC(=O)NC[C@H]1CN(c2ccc(N3CCOCC3)c(F)c2)C(=O)O1
The Papp of the first is 3.2-fold higher: 16 ×10⁻⁶ cm/s for the first, 5 ×10⁻⁶ cm/s for the second.

`COc1ccc(Cn2c(-c3ccccc3)c(-c3ccccc3)c3c(=N)n(CCCCCO)cnc32)cc1` and `COc1ccc(Cn2c(-c3ccccc3)c(-c3ccccc3)c3c(=N)n(CC4CCCO4)cnc32)cc1` (stereo not given) are within 1.5-fold of each other in Papp: 206 ×10⁻⁶ cm/s for the first, 297 ×10⁻⁶ cm/s for the second.

First: N=c1c2c(-c3ccccc3)cn(Cc3ccccc3)c2ncn1C1CCC(O)CC1 (stereo not given)
Second: N=c1c2c(-c3ccccc3)cn(Cc3ccccc3)c2ncn1CCNCCO
The Papp of the first is 72-fold higher: 217 ×10⁻⁶ cm/s for the first, 3 ×10⁻⁶ cm/s for the second.

First: COc1cc(OC)c(OC)cc1CN1CCc2nc(N3CCN(c4ccccc4F)CC3)ncc2C1
Second: Nc1nc(N)c2c(OCC3CCN(Cc4ccccc4F)CC3)cccc2n1
The Papp of the first is higher: > 300 ×10⁻⁶ cm/s for the first, 12 ×10⁻⁶ cm/s for the second.

Going from `Oc1ccc2nc(CN3CCC(Cc4ccccc4F)CC3)[nH]c2c1` to `COc1ccc(C)cc1Nc1c2c(nc3ccccc13)CCC2`, the Papp rises from 107 ×10⁻⁶ cm/s to 215 ×10⁻⁶ cm/s (2-fold).

Compared with `Cn1c(CCCCCCC(=O)NO)nc2cc(N(CCCl)CCCl)ccc21`, `CCCN(CCC)C1CCc2ccc(O)cc2C1` (stereo not given) is higher in Papp: < 1 ×10⁻⁶ cm/s for the first, 26 ×10⁻⁶ cm/s for the second.

`CSCC[C@H](NC(=O)[C@H](Cc1ccccc1)NC(=O)CNC(=O)CNC(=O)[C@@H](N)Cc1ccc(O)cc1)C(=O)O` and `N[C@@H](COC(c1cccc(F)c1)c1ccccc1OCc1ccccc1)C(=O)O` (stereo not given in full) cannot be ordered by Papp: < 1 ×10⁻⁶ cm/s for the first, < 1 ×10⁻⁶ cm/s for the second.

Going from `CC(/C=C/[C@@H]1C[C@]1(C)c1ccc2c(c1)C(C)(C)CCC2(C)C)=C\C(=O)O` to `CN(C(=O)/C=C/c1ccoc1)[C@@H]1CC[C@@]2(O)[C@H]3Cc4ccc(O)c5c4[C@@]2(CCN3CC2CC2)[C@H]1O5`, the Papp falls from 63 ×10⁻⁶ cm/s to 13 ×10⁻⁶ cm/s (4.8-fold).

First: NC(=O)N1CCC(CC(=O)N2CCC([C@H]3c4ncc(Br)cc4CCc4cc(Cl)cc(Br)c43)CC2)CC1
Second: N#Cc1ccnc(Nc2cc(C3CCN(C4COC4)CC3)cc(N3CCC(F)(F)C3)n2)c1
The Papp of the first is 1.8-fold lower: 73.5 ×10⁻⁶ cm/s for the first, 133 ×10⁻⁶ cm/s for the second.

Going from `CO/N=C(\C(=O)N[C@@H]1C(=O)N2C(C(=O)OCOC(=O)C(C)(C)C)=C(/C=C\c3scnc3C)CS[C@H]12)c1csc(N)n1` to `CC(=O)OCC1=C(C(=O)O)N2C(=O)[C@@H](NC(=O)[C@H](N)c3ccccc3)[C@H]2SC1`, the Papp falls from 11 ×10⁻⁶ cm/s to < 1 ×10⁻⁶ cm/s.

`COc1ccc(Cn2c(-c3ccccc3)c(-c3ccccc3)c3c(=N)n(N4CCOCC4)cnc32)cc1` and `N=c1c2c(-c3ccccc3)cn(Cc3ccccc3)c2ncn1Cc1ccco1` are within 1.5-fold of each other in Papp: 160 ×10⁻⁶ cm/s for the first, 226 ×10⁻⁶ cm/s for the second.

Compared with `O=C(Nc1ccc(S(=O)(=O)N2CCOCC2)cc1)c1cc(Cl)ccc1NS(=O)(=O)c1ccc(Cl)s1`, `O=S(=O)(Nc1cc(Cl)c(Oc2cnc3ccccc3c2)c(Cl)c1)c1ccc(Cl)cc1Cl` is 3.5-fold lower in Papp: 85 ×10⁻⁶ cm/s for the first, 24 ×10⁻⁶ cm/s for the second.

First: COc1c(C)cnc(Cn2cnc3c(Cl)nc(N)nc32)c1C
Second: COc1cc(C(C)C)c(Oc2cnc(NC(CO)CO)nc2N)cc1I
The Papp of the first is 32-fold lower: 3.17 ×10⁻⁶ cm/s for the first, 103 ×10⁻⁶ cm/s for the second.

Going from `CNCCC=C1c2ccccc2CCc2ccccc21` to `Cn1nnnc1Sc1ncnc2scc(-c3cccc4c3sc3ccccc34)c12`, the Papp falls from 253 ×10⁻⁶ cm/s to 12 ×10⁻⁶ cm/s (21-fold).

Compared with `COc1cc2c(cc1OC)[C@@H](Cc1cc(OC)c(OC)c(OC)c1)[N+](C)(CCCOC(=O)CC/C=C/CCC(=O)OCCC[N+]1(C)CCc3cc(OC)c(OC)cc3[C@H]1Cc1cc(OC)c(OC)c(OC)c1)CC2` (stereo not given in full), `CCC1=C[C@@H]2CN(C1)Cc1c([nH]c3ccccc13)[C@@](C(=O)OC)(c1cc3c(cc1OC)N(C)[C@H]1[C@@](O)(C(=O)OC)[C@H](OC(C)=O)[C@]4(CC)C=CCN5CC[C@]31[C@@H]54)C2` is higher in Papp: < 1 ×10⁻⁶ cm/s for the first, 30 ×10⁻⁶ cm/s for the second.

Going from `CN[C@H](CC(C)C)C(=O)N[C@H]1C(=O)N[C@@H](CC(N)=O)C(=O)N[C@H]2C(=O)N[C@H]3C(=O)N[C@H](C(=O)N[C@H](C(=O)O)c4cc(O)cc(O)c4-c4cc3ccc4O)[C@H](O[C@H]3C[C@](C)(N)[C@@H](O)[C@H](C)O3)c3ccc(c(Cl)c3)Oc3cc2cc(c3O[C@@H]2O[C@H](CO)[C@@H](O)[C@H](O)[C@H]2O[C@H]2C[C@](C)(NCc3ccc(-c4ccc(Cl)cc4)cc3)[C@@H](O)[C@H](C)O2)Oc2ccc(cc2Cl)[C@H]1O` to `COc1cc([C@@H]2c3cc4c(cc3[C@@H](O[C@@H]3O[C@@H]5CO[C@@H](C)O[C@@H]5[C@H](O)[C@@H]3O)[C@H]3COC(=O)[C@H]23)OCO4)cc(OC)c1O`, the Papp falls from 12 ×10⁻⁶ cm/s to 3 ×10⁻⁶ cm/s (4-fold).

Going from `OC[C@H]1O[C@@H](n2cnc3c(NCc4ccc(O)cc4)ncnc32)[C@H](O)[C@@H]1O` to `CC1(C)S[C@@H]2[C@H](NC(=O)COc3ccccc3)C(=O)N2[C@H]1C(=O)O`, the Papp rises from < 1 ×10⁻⁶ cm/s to 6 ×10⁻⁶ cm/s.

Compared with `Cc1nn(C)c(C)c1-c1cccc2c1CCC(N(C)C)C2` (stereo not given), `CC[C@@]1(O)C(=O)OCc2c1cc1n(c2=O)Cc2c-1nc1ccccc1c2/C=N/OC(C)(C)C` is 6-fold higher in Papp: 13.4 ×10⁻⁶ cm/s for the first, 81 ×10⁻⁶ cm/s for the second.

With `NCc1ccccc1CC(=O)N[C@@H]1C(=O)N2C(C(=O)O)=C(CSc3nnnn3CC(=O)O)CS[C@H]12` the Papp was < 1 ×10⁻⁶ cm/s.
